ChEMBL document CHEMBL5247677, “N-Aryl Indoles as a Novel Class of Potent NaV1.7 Inhibitors” (ACS Med Chem Lett, 2023)
Values after ≈ are worked out from the molar mass of the structure shown. Active and inactive are the calls of the source. The calls are words filed in the database; no cut-off is given here.

What was measured:
[1] = biological target: Sodium channel protein type 9 subunit alpha/beta-1/beta-2 (Homo sapiens, UniProt Q15858); test: Inhibition of human Nav1.7/beta1/2 transfected in HEK293-A cells assessed as inhibition of channel current incubated for 5.5 mins by high-throughput electrophysiology system analysis; type: cell-based
[2] = biological target: Sodium channel protein type 9 subunit alpha/beta-1/beta-2 (Mus musculus, UniProt Q62205); test: Inhibition of mouse Nav1.7/beta1/2 transfected in HEK293-A cells assessed as inhibition of channel current incubated for 5.5 mins by high-throughput electrophysiology system analysis; type: cell-based
Sequence of Sodium channel protein type 9 subunit alpha/beta-1/beta-2 (Mus musculus, UniProt Q62205) (Q62205 whole entry): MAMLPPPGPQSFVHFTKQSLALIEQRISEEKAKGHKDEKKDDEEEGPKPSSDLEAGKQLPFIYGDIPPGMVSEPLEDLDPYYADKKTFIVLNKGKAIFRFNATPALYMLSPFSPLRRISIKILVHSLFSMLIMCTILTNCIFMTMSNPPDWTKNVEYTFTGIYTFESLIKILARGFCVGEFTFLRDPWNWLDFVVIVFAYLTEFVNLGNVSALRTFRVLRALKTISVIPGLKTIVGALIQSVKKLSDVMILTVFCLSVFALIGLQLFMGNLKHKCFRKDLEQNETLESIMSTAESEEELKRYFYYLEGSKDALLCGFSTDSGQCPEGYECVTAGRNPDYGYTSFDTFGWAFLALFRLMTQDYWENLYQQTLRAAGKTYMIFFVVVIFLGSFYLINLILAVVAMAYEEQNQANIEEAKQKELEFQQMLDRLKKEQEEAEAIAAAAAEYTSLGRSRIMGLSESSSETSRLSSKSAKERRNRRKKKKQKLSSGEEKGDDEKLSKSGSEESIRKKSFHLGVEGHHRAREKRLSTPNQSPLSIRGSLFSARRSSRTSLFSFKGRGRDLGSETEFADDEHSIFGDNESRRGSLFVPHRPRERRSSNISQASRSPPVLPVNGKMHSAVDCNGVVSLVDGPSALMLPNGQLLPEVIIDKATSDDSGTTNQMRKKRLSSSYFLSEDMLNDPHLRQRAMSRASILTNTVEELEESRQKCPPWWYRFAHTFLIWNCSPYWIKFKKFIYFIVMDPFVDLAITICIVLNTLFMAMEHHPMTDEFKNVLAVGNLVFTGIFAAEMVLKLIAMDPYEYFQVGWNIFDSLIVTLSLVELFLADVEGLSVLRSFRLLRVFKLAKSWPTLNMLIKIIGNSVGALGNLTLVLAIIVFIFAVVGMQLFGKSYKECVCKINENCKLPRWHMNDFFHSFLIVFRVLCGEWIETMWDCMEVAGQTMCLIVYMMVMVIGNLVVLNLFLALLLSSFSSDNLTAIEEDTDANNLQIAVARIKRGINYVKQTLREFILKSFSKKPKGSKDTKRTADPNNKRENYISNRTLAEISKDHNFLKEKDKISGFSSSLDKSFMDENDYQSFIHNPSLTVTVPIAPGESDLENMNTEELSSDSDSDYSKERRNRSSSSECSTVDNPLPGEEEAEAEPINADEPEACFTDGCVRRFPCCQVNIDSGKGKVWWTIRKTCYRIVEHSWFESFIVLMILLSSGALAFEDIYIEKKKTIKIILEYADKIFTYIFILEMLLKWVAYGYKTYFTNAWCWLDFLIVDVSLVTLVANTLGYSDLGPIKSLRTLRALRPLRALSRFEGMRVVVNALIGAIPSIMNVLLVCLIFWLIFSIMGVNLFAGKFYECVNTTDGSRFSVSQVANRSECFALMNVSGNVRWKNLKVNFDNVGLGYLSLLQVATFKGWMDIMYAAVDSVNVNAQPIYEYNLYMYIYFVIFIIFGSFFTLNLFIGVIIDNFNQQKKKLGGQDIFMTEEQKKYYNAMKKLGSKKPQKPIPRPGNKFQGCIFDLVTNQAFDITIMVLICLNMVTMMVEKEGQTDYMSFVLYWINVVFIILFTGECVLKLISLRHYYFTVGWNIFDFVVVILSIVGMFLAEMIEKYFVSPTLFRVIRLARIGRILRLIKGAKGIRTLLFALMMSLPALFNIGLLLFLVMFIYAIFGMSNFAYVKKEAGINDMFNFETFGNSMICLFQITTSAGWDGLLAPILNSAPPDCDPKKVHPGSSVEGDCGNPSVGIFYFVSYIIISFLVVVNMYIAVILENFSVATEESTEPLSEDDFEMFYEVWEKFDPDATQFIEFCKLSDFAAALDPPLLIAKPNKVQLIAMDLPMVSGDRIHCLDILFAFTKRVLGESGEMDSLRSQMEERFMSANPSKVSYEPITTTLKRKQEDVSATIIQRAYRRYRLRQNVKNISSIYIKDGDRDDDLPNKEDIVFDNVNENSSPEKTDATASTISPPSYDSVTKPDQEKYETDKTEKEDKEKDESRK
Sequence of Sodium channel protein type 9 subunit alpha/beta-1/beta-2 (Mus musculus, UniProt Q62205) (P97952 whole entry, further chain): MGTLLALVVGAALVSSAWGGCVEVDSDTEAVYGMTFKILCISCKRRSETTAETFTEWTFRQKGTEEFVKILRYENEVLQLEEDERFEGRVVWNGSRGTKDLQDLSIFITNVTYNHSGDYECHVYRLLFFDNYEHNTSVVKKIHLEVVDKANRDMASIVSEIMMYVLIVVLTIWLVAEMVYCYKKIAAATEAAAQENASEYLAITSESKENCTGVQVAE
Sequence of Sodium channel protein type 9 subunit alpha/beta-1/beta-2 (Mus musculus, UniProt Q62205) (Q56A07 whole entry, further chain): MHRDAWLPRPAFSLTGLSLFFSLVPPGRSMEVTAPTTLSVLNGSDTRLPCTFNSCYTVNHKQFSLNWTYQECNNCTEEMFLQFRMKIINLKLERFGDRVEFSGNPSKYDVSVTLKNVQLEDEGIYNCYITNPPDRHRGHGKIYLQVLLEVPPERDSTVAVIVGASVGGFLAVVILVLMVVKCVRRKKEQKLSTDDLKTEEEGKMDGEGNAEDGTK

[3] = biological target: Sodium channel protein type 1 subunit alpha/beta-1/beta-2 (Homo sapiens, UniProt P35498); test: (§1) Inhibition of human Nav1.1/beta1/2 transfected in HEK293-A cells assessed as inhibition of channel current incubated for 5.5 mins by high-throughput electrophysiology system analysis; type: toxicity, cell-based
[4] = biological target: Sodium channel protein type 5 subunit alpha/beta-1/beta-2 (Homo sapiens, UniProt Q14524); test: (§2) Inhibition of human Nav1.5/beta1/2 transfected in HEK293-A cells assessed as inhibition of channel current incubated for 5.5 mins by high-throughput electrophysiology system analysis; type: toxicity, cell-based
[5] = biological target: hERG (KCNH2) (Homo sapiens, UniProt Q12809); test: Inhibition of hERG at 100 uM; type: toxicity
Sequence of hERG (KCNH2) (Q12809 whole entry): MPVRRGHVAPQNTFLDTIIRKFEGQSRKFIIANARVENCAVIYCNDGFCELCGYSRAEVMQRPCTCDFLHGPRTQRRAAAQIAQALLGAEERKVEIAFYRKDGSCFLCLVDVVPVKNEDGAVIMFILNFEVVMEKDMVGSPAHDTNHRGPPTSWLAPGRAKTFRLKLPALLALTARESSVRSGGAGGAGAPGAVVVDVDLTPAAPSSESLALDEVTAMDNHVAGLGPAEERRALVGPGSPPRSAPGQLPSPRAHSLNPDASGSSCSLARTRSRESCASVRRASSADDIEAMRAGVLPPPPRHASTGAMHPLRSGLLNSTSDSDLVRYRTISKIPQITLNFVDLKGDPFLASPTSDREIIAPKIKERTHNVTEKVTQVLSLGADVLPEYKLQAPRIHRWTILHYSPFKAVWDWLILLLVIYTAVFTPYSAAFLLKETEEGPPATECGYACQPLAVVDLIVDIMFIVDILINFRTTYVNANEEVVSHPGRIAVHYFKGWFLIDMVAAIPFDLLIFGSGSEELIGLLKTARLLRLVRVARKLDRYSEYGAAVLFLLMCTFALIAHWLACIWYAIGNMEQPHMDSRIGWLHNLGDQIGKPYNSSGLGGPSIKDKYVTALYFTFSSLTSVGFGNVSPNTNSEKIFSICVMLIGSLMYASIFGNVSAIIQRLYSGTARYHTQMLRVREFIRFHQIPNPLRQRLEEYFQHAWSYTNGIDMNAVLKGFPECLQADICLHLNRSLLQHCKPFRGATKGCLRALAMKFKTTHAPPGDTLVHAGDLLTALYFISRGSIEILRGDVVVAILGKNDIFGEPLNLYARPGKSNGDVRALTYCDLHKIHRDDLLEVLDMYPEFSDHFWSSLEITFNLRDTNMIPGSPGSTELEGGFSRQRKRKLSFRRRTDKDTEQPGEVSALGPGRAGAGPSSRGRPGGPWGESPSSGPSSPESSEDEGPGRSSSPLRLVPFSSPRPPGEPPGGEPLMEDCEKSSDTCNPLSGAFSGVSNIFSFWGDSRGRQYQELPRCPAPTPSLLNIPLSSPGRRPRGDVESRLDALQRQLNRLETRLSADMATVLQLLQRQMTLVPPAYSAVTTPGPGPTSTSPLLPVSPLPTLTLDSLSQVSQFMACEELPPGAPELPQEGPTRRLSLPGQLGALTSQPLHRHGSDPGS

[6] = 1-Octanol/PBS buffer distribution coefficient, log D of the compound at pH 7.4 by HPLC/LC-MS analysis; type: physicochemical
[7] = Aqueous thermodynamic solubility of the compound at pH 6.8 measured after 4 hrs by HPLC-UV analysis; type: physicochemical; details: read-out: Therm_solubility
[8] = Unbound fraction in mouse plasma; type: ADME, cell-free
[9] = Selectivity ratio of IC50 for mouse Nav1.7/beta1/2 transfected in HEK293-A cells to IC50 for human Nav1.7/beta1/2 transfected in HEK293-A cells; type: cell-based
[10] = Selectivity ratio of IC50 for human Nav1.1/beta1/2 transfected in HEK293-A cells to IC50 for human Nav1.7/beta1/2 transfected in HEK293-A cells
[11] = Selectivity ratio of IC50 for human Nav1.5/beta1/2 transfected in HEK293-A cells to IC50 for human Nav1.7/beta1/2 transfected in HEK293-A cells
[12] = biological target: Nav1.1/beta1/beta2 sodium channel (Homo sapiens, UniProt P35498); test: as §1; type: toxicity, cell-based; details: human, HEK293-A cells transfected with human Nav1.1/beta1/2
[13] = tested on: Mus musculus; test: Analgesic activity against PSL-induced neuropathic pain mouse model assessed as reversal of thermal hyperalgesia at 1 mg/kg, po measured after 30 mins by plantar test; type: functional; details: 0.5 h
[14] = tested on: Mus musculus; test: Analgesic activity against PSL-induced neuropathic pain mouse model assessed as reversal of thermal hyperalgesia at 1 mg/kg, po measured after 60 mins by plantar test; type: functional, organism-based
[15] = tested on: Mus musculus; test: Analgesic activity against PSL-induced neuropathic pain mouse model assessed as reversal of thermal hyperalgesia at 1 mg/kg, po measured after 180 mins by plantar test; type: functional, organism-based
[16] = Cmax in ddY mouse at 1 mg/kg, po by LC-MS/MS analysis; type: ADME, organism-based; set-up: dose 1 mg/kg, route po; details: in vivo
[17] = Tmax in ddY mouse at 1 mg/kg, po by LC-MS/MS analysis; type: ADME, organism-based; details: in vivo
[18] = AUC(0 to 24 hrs) in ddY mouse at 1 mg/kg, po by LC-MS/MS analysis; type: ADME, organism-based; set-up: dose 1 mg/kg, route po; details: in vivo
[19] = Half life in ddY mouse at 1 mg/kg, po by LC-MS/MS analysis; type: ADME, organism-based; details: in vivo
[20] = Ratio of fCmax in ddY mouse plasma at 1 mg/kg, po to IC50 for inhibition of mouse Nav1.7/beta1/2 transfected in HEK293-A cells
[21] = biological target: Nav1.5/beta1/beta2 sodium channel (Homo sapiens, UniProt Q14524); test: as §2; type: toxicity, cell-based; details: human, HEK293-A cells transfected with human Nav1.5/beta1/2
[22] = Total body clearance in ddY mouse at 1 mg/kg, iv by LC-MS/MS analysis; type: ADME, organism-based; details: in vivo
[23] = Volume of distribution at steady state in ddY mouse at 1 mg/kg, iv by LC-MS/MS analysis; type: ADME, organism-based; details: in vivo, read-out: Vdss
[24] = Bioavailability in ddY mouse at 1 mg/kg, iv by LC-MS/MS analysis; type: ADME, organism-based; details: in vivo
[25] = tested on: Mus musculus; test: Analgesic activity against PSL-induced neuropathic pain mouse model assessed as reversal of thermal hyperalgesia at 3 mg/kg, po by plantar test; type: functional, organism-based

Compound	IC50 [1]	IC50 [2]	IC50 [3]	IC50 [4]	inhibition at 100 µM [5]	logD [6]	solubility thermodynamic at 4 h [7]	fraction unbound [8]	also measured
Cc1cn(-c2ccc(C(F)(F)F)nc2)c2ccc(C(=O)NS(=O)(=O)C3CC3)cc12	0.059 µM	1.6 µM	> 100 µM	210 µM	21%	1	29 µM (≈ 12.3 µg/mL)	0.014	
Cc1cn(-c2ccc(Cl)cc2)c2ccc(C(=O)NS(C)(=O)=O)cc12	0.26 µM	7.9 µM	> 100 µM	23 µM	51.1%	1.8	26 µM (≈ 9.43 µg/mL)		
Cc1cn(-c2ccccc2)c2ccc(C(=O)NS(C)(=O)=O)cc12	0.33 µM	2.7 µM	80 µM	79 µM	17.1%	1.1	> 660 µM	< 0.002	Ratio IC50 [9]: 10; Ratio IC50 [10]: 240; Ratio IC50 [11]: 240
CS(=O)(=O)NC(=O)c1ccc2c(ccn2Cc2ccccc2)c1	> 10 µM	> 10 µM							
C[C@@H](c1cc(Cl)cc(Cl)c1)N1CCC(COc2cc(F)c(C(=O)NS(C)(=O)=O)cc2C2CC2)CC1	0.0006 µM			0.551 µM					IC50 at 5.5 min [12]: 0.202 µM
Cc1cn(-c2cncc(C(F)(F)F)c2)c2cc(F)c(C(=O)NS(=O)(=O)C3CC3)cc12	0.04 µM	0.015 µM	1.2 µM	32 µM	-2.9%	0.6	25 µM (≈ 11 µg/mL)	0.007	Ratio IC50 [10]: 30; Efficacy [13]: 64%; Activity [14]: Active; Activity [15]: inactive; Cmax [16]: 1400 nM; Tmax [17]: 6 h; AUC(0-t) [18]: 23.6 µM·h; half-life [19]: 13.5 h; Ratio [20]: 0.65
CS(=O)(=O)NC(=O)c1cc(Cl)c(Oc2cnc(C3CC3)c(Cl)c2)cc1F	0.052 µM	1.7 µM	22 µM	29 µM					
Cc1cn(-c2cccc(C(F)(F)F)c2)c2ccc(C(=O)NS(C)(=O)=O)cc12	0.034 µM	0.68 µM	20 µM	27 µM	49.8%	1.7	> 820 µM	0.002	
Cc1cn(-c2cccc(F)c2)c2cc(F)c(C(=O)NS(C)(=O)=O)cc12	0.014 µM	0.98 µM	> 100 µM	31 µM	15.6%	0.8	430 µM (≈ 157 µg/mL)	< 0.002	
Cc1cn(-c2cccnc2)c2ccc(C(=O)NS(C)(=O)=O)cc12	> 10 µM			> 300 µM	-0.1%				
Cc1cn(-c2cccnc2)c2ccc(C(=O)NS(=O)(=O)C3CC3)cc12	1.6 µM	> 10 µM	> 100 µM	> 300 µM	-8.8%				
Cc1cn(-c2cncc(F)c2)c2ccc(C(=O)NS(=O)(=O)C3CC3)cc12	0.86 µM	2.7 µM	> 100 µM	> 300 µM	-1.1%				
Cc1cn(-c2ccccc2F)c2ccc(C(=O)NS(C)(=O)=O)cc12	5.9 µM	12 µM		100 µM					
Cc1cn(-c2cccc(F)c2)c2ccc(C(=O)NS(C)(=O)=O)cc12	0.038 µM	0.9 µM	12 µM	35 µM	13.2%	1.2	600 µM (≈ 208 µg/mL)	< 0.002	
Cn1cc(-c2ccccc2)c2cc(C(=O)NS(C)(=O)=O)ccc21	> 10 µM	> 10 µM							
O=C(NS(=O)(=O)N1CCC1)c1cc(C2CC2)c(OCC23CC4CC(CC(C4)C2)C3)cc1F									IC50 at 5.5 min [21]: 0.051 µM
Cc1cn(-c2cccc(F)c2)c2ccc(C(=O)NS(=O)(=O)C3CC3)cc12	0.032 µM	0.81 µM	4.8 µM	14 µM	42.1%	1.8	440 µM (≈ 164 µg/mL)	< 0.002	Efficacy [13]: 79%; Cmax [16]: 1700 nM; Tmax [17]: 1 h; AUC(0-t) [18]: 12.1 µM·h; half-life [19]: 5 h; clearance [22]: 2.58 mL/min/kg; Vd [23]: 0.57 L/kg; bioavailability [24]: 65%; Ratio [20]: <0.0042
Cc1cn(-c2cccc(Cl)c2)c2ccc(C(=O)NS(C)(=O)=O)cc12	0.087 µM	1.7 µM	20 µM	34 µM	43.5%	1.8	620 µM (≈ 225 µg/mL)	< 0.002	
Cc1cn(-c2ccc(F)cc2)c2ccc(C(=O)NS(C)(=O)=O)cc12	0.19 µM	2.8 µM	52 µM	42 µM	5.6%	1.1	140 µM (≈ 48.5 µg/mL)	< 0.002	
Cc1cccc(-n2cc(C)c3cc(C(=O)NS(C)(=O)=O)ccc32)c1	0.058 µM	1.6 µM	39 µM		51%	1.6	550 µM (≈ 188 µg/mL)		
CS(=O)(=O)NC(=O)c1ccc2[nH]cc(-c3ccccc3)c2c1	> 10 µM	> 10 µM							
COc1cccc(-n2cc(C)c3cc(C(=O)NS(C)(=O)=O)ccc32)c1	0.19 µM	2.1 µM	79 µM	71 µM	18.9%	1.2	580 µM (≈ 208 µg/mL)	< 0.002	
Cc1cn(-c2cccc(C(F)(F)F)c2)c2cc(F)c(C(=O)NS(C)(=O)=O)cc12	0.019 µM	0.016 µM	> 100 µM	14 µM	54.8%	1.5	230 µM (≈ 95.3 µg/mL)	0.004	Ratio IC50 [10]: 5000; Ratio IC50 [11]: 740; Activity [25]: Active
Cc1cn(-c2cncc(Cl)c2)c2ccc(C(=O)NS(=O)(=O)C3CC3)cc12	0.085 µM	0.46 µM	9.9 µM	107 µM	34.1%	0.8	35 µM (≈ 13.6 µg/mL)		
CS(=O)(=O)NC(=O)c1ccc2c(ccn2-c2ccccc2)c1	> 10 µM	> 10 µM							
